This is an account of results in patent publication US20120148680A1, “EYE CREAM AND PREPARATION METHOD” (MAYINGLONG PHARMACEUTICAL GROUP CO., LTD, priority 2010, published 2012).

This data set has as its system red blood cells. Briefly: Stimulation test, Red Blood Cell (RBC) test system, INVITTOX n° 37. It counts as cell-based. The settings on record: relative to SDS. The method, then:
Experimental method: Refer to ECVAM DB-ALM: INVITTOX protocol; Red Blood Cell Test System INVITTOX n° 37, hereinafter referred to as RBC test system.
The basic principle of the RBC test system is to determine the damage on the cell membrane caused by chemicals and the change of cell membrane permeability resulted from it. The damage degree of the cell membrane, which is directly related to the stimulation of a product, is evaluated through determining the amount of hemoglobin leaked from red blood cells.
The absorbance of red blood cell suspension after exposure to the chemicals is determined by spectrophotometric method, then the hemolysis rate and HSO value (i.e. the concentration value of the test substance, 50% of red blood cells of which develop hemolysis) can be calculated. The HSO value and the results of two grading standards in Draize test, i.e. the maximum average Draize total score (MAS) and the 24 h after application and scores of composition parameters (cornea, conjunctiva and iris) thereof are subjected to correlation analysis to show good consistency. At the same concentration, the higher the hemolysis rate of the sample is, the stronger the stimulation of the sample is.
The stimulation ratio of each sample is as shown in the following table relative to SDS after the comparison of the SDS stimulation ratio: […]

As for `CCCCCCCCCCCCOS(=O)(=O)[O-].[Na+]` [SDS control substance, SDS], the Stimulation ratio worked out at 100%.
